The text below walks through data of ChEMBL document CHEMBL1154685, “Simple oxidation of pyrimidinylhydrazones to triazolopyrimidines and their inhibition of Shiga toxin trafficking” (Eur J Med Chem, 2010).

In the series the test system is HeLa. The experiment in a line: Toxicity in human HeLa cells assessed as inhibition of protein synthesis by [35S]labeled methionine and cysteine incorporation. Type of series: cell-based.

SMILES strings stand for the structures.

Turning to `Oc1ccc(-c2nc3c4c5c(sc4ncn3n2)CCCC5)cc1`, the Activity result is recorded as “Non-toxic”.

Take `COc1cc(/C=N/NC2=C3C4=C(CCCC4)SC3N=CN2)ccc1O` (configuration not stated): the Activity entry is “Non-toxic”.
